Measured values published in patent publication US11020405B2, “Method for prevention or treatment of diabetic complications” (KANGWON NATIONAL UNIVERSITY UNIVERSITY-INDUSTRY COOPERATION …, priority 2017, dated 2021).

Legend:
TGase [1] = assay: Identification of receptor of midazolam through TGase activity analysis; assay type: cell-based, human; details: HRECs, 0-50 μM flumazenil or 0-30 μM PK11195 1 hr, then 20 μM midazolam 30 min, then 10 ng/ml VEGF (FIG. 11B)
Experimental: With reference to FIG. 11A, the HRECs of Test Example 1 were subjected to the respective treatments below, cultured for 2 hr, treated with 1 mM 5-(biotinamido)pentylamine, incubated for 1 hr, fixed with 3.7% formaldehyde, treated with 0.2% triton X-100, treated with a blocking solution containing 138 mM NaCl, 0.1% Tween 20 and 2% BSA dissolved in a 20 mM Tris (pH 7.6) buffer, incubated for 30 min, incubated with FITC-conjugated streptavidin (1:200, v/v) for 1 hr, and then measured using confocal microscopy to thus determine the fluorescence intensity of single cells.
(§1) As will be described below, flumazenil was used as a GABAA receptor antagonist and PK11195 was used as a TSOP receptor antagonist.
With reference to FIG. 11B, the HRECs of Test Example 1 were treated with 0 μM, 0.01 μM, 0.1 μM, 1 μM, 10 μM, 20 μM, and 50 μM flumazenil and 0 μM, 0.01 μM, 0.1 μM, 1 μM, 3 μM, 10 μM, and 30 μM PK11195, cultured for 1 hr, treated with 20 μM midazolam, cultured for 30 min, treated with 10 ng/ml VEGF, incubated for 10 min, treated with 1 mM 5-(biotinamido)pentylamine, incubated for 1 hr, fixed with 3.7% formaldehyde, treated with 0.2% triton X-100, treated with a blocking solution containing 138 mM NaCl, 0.1% Tween 20 and 2% BSA dissolved in a 20 mM Tris (pH 7.6) buffer, incubated for 30 min, incubated with FITC-conjugated streptavidin (1:200, v/v) for 1 hr, and then measured using confocal microscopy to thus determine the fluorescence intensity of single cells.

[2] = tested on: retinal vessels of diabetic mice; assay: Fluorescein angiography for mouse model (retinal vascular leakage); assay type: in vivo, C57BL/6 mice; details: intravitreal 3 μL of 0.4 mM flumazenil in two administrations and 2 μL of 2 mM midazolam, group excluded from those without significant increase
[3] = tested on: human retinal endothelial cells (HRECs); assay: Identification of receptor of midazolam through ROS concentration analysis; assay type: cell-based; details: 0-50 μM flumazenil or 0-30 μM PK11195 1 hr, then 20 μM midazolam 30 min, then 10 ng/ml VEGF (FIG. 10B)
Experimental: With reference to FIG. 10A, the HRECs of Test Example 1 were subjected to the respective treatments below, cultured for 10 min, treated with 10 μM H2DCFDA, stained for 10 min in a phenol-red-free low-serum medium, and measured using confocal microscopy to thus determine the fluorescence intensity of single cells.
as §1
With reference to FIG. 10B, the HRECs of Test Example 1 were treated with 0 μM, 0.01 μM, 0.1 μM, 1 μM, 10 μM, 20 μM, and 50 μM flumazenil and 0 μM, 0.01 μM, 0.1 μM, 1 μM, 3 μM, 10 μM, and 30 μM PK11195, cultured for 1 hr, treated with 20 μM midazolam, cultured for 30 min, treated with 10 ng/ml VEGF, incubated for 10 min, treated with 10 μM H2DCFDA, stained for 10 min in a phenol-red-free low-serum medium, and then measured using confocal microscopy to thus determine the fluorescence intensity of single cells.

TGase [4] = assay: Analysis of TGase activity in retinas of diabetic mouse model; assay type: in vivo, C57BL/6 mice; details: intravitreal 3 μL of 0.4 mM flumazenil in two administrations and 2 μL of 2 mM midazolam, group excluded from those without significant increase
Experimental: 6-week-old male C57BL/6 mice (DBL, EumSeong, Korea) were administered with streptozotocin (Sigma-Aldrich) dissolved in a 100 mM citrate buffer (pH 4.5) through intraperitoneal injection in an amount of 150 mg each per kg of mouse weight to give diabetic mouse models. In the diabetic mouse models, the blood glucose level was 19 mM or more when not fasting, and polyuria and diabetes, considered signs of diabetes, were observed. […]
48 μL of 100 mM 5-(biotinamido)pentylamine was injected into the left ventricle of each of normal mice (Normal), midazolam-administered normal mice (Midazolam), diabetic mice (Diabetic), midazolam-administered diabetic mice (Diabetic+Midazolam), flumazenil- and midazolam-administered diabetic mice (Diabetic+flumazenil+Midazolam), cystamine-administered diabetic mice (Diabetic+cystamine) and MDC-administered diabetic mice (Diabetic+MDC) and circulated for 10 min, after which cervical dislocation was performed, and the eyeballs were extracted, fixed with 4% paraformaldehyde for 45 min, incised and subjected to permeation treatment for 30 min. The obtained retinal samples were incubated with a blocking solution for 30 min, treated with FITC-conjugated streptavidin (1:200, v/v), stained for 1 hr, and measured using confocal microscopy. […]

Structure (SMILES)	TGase activity in midazolam- and VEGF-treated cells after receptor antagonist (TGase [1])	retinal vascular leakage compared to normal mice, flumazenil given with midazolam [2]	ROS concentration in midazolam- and VEGF-treated cells after receptor antagonist [3]	TGase activity in retina compared to normal mice, flumazenil given with midazolam (TGase [4])
CCOC(=O)c1ncn2c1CN(C)C(=O)c1cc(F)ccc1-2 [flumazenil]	an increase in TGase activity with an increase in flumazenil concentration	excluding the diabetic mice (Diabetic) and the flumazenil- and midazolam-administered diabetic mice	an increase in ROS concentration with an increase in flumazenil concentration	excluding the diabetic mice (Diabetic) and the flumazenil- and midazolam-administered diabetic mice
CCC(C)N(C)C(=O)c1cc2ccccc2c(-c2ccccc2Cl)n1 (stereo not drawn) [PK11195]	no increase in TGase activity, regardless of the PK11195 concentration	–	no increase in ROS concentration, regardless of the PK11195 concentration	–
